The target in one series is T1, human β3-AR (Homo sapiens, UniProt P13945).
T1 construct: Full length β3 AR clones (402 amino acids) containing the last 6 amino acids of hβ3; expressed in transfected cells; host or cells: CHO (Chinese hamster ovary) cells
The experiment in a line: cAMP accumulation (SPA) in CHO cells transfected with human β3 adrenergic receptor. Format: cell-based. The note with it: for Emax: read-out: IA(β3). The procedure: The ability of compounds of this invention to treat or inhibit disorders related to insulin resistance or hyperglycemia was established with representative compounds of this invention in the following standard pharmacological test procedures, which measured the binding selectivity to the β1, β2, and β3 adrenergic receptors. Binding to the receptors was measured in Chinese Hamster ovary (CHO) cells that were transfected with adrenergic receptors. The following briefly summarizes the procedures used and results obtained.
Cloning of Human β3-AR Genomic DNA: cDNA was constructed by ligating four polymerase chain reaction (PCR) products using the following primers: an ATG-Narl fragment, sense primer 5′-[…]3′ and anti-sense primer 5′[…]3′; a Narl-Accl fragment, 5′[…]3′ as sense and 5′[…]3′ as anti-sense primer; an Accli-Styl fragment, sense primer 5′[…]3′ and anti-sense primer 5′[…]3′ and a Styl-TAG fragment, with sense primer 5′[…]3′ and anti-sense primer 5′[…]3′. The corresponding primer sequences are described in Mantzoros, C. S., etal, Diabetes 45: 909-914 (1996). The four fragments are ligated into a pUC 18 plasmid (Gibco-BRL) and sequenced. Full length β3 AR clones (402 amino acids) containing the last 6 amino acids of hβ3 . . . AR are prepared with the β3-βARpcDNA3 from ATTC.
Binding Procedure: Clones expressing receptor levels of 70 to 110 fmoles/mg protein were used in the test procedures. CHO cells were grown in 24-well tissue culture plates in Dulbecco's Modified Eagle Media with 10% fetal bovine serum, MEM non-essential amino acids, Penicillin-Streptompycin and Geneticin. On the day of test procedure, growth medium was replaced with preincubation media (Dulbecco's Modified Eagle Media and incubated for 30 minutes at 37° C. Preincubation medium was replaced with 0.2 ml treatment medium containing DMEM media containing 250 μM IBMX (isobutyl-1-methylxantine) plus 1 mM ascorbic acid with test compound dissolved in DMSO. Test compounds were tested over a concentration range of 10^−9 M to 10^−5 M for β3 cells and 10^″8 to 10^″4 M for β1 and β2 transfected cells. Isoproterenol (10^−5 M) was used as an internal standard for comparison of activity. Cells were incubated at 37° C. on a rocker for 30 min with the β3 cells and 15 min for β1 and β2 cells. Incubation was stopped with the addition of 0.2 N HCI and neutralized with 2.5 N NaOH. The plates, containing the cells and neutralized media, were stored at −20 degrees celsius until ready to test for cAMP using the SPA test kit (Amersham).
Data Analysis and Results: Data collected from the SPA test procedure were analyzed as percent of the maximal isoproterenol response at 10^−5 M. Activity curves were plotted using the SAS statistical and graphics software. EC50 values were generated for each compound and the maximal response (IA) developed for each compound is compared to the maximal response of isoproternol at 10^−5 M from the following formula: [formula]
For orientation: Changes in cAMP serve as a functional read-out for many G protein-coupled receptors.

Setting [1] is: CHO cells expressing human β3-AR, cAMP, 30 min at 37° C., 10^-9 M to 10^-5 M, read-out: EC50(β3).
Setting [2] is: maximal response compared to the maximal response of isoproterenol at 10^-5 M, CHO cells expressing human β3-AR.

The values that follow come from patent US6465501B2, “Azolidines as β3 adrenergic receptor agonists” (Wyeth, priority 2000, dated 2002).

Read-outs that look alike come from different tables or passages of the source.

T1 sequence (P13945 whole entry): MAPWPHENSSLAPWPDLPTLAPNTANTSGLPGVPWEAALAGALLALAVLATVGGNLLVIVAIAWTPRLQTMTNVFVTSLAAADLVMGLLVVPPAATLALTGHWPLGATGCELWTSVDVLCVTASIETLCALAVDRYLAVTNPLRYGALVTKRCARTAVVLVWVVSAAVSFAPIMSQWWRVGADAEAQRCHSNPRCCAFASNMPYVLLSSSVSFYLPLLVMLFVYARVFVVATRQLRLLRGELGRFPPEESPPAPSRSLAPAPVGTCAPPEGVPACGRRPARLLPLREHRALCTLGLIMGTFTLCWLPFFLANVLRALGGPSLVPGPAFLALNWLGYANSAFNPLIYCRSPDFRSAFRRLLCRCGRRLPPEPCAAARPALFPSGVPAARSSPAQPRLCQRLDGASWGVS

Consider `O=C1NC(=O)C(Nc2ccc(CCNC[C@@H](O)COc3cccc4[nH]c(=O)[nH]c34)cc2)S1` (stereo partly shown) [Example 19, 5-{4-[2-({(2 R)-2-Hydroxy-3-[(2-oxo-2,3-di hydro-1 H-benzimidazol-4-yl)oxy]propyl}amino)ethyl]anilino}-1,3-thiazolidine-2,4-dione], for which the EC50 at human β3-AR (setting [1]) was 20 nM. Also, at human β3-AR (setting [2]), the Emax was found to be 71%.
As to `O=C1NC(=O)C(Nc2ccc(CCNC[C@H](O)c3ccccc3)cc2)S1` (stereo partly shown) [Example 7, 5-[4-(2-{[(2 R)-2-Hydroxy-2-phenylethyl]amino}ethyl)anilino]-1,3-thiazolidine-2,4-dione], the EC50 at human β3-AR (setting [1]) came to 83 nM. The Emax on human β3-AR (setting [2]) was 94%.
As to `CN(c1ccc(CCNC[C@H](O)COc2ccccc2)cc1)C1SC(=O)NC1=O` (stereo partly shown) [Example 17, 5-[4-(2-{[(2 S)-2-Hydroxy-3-phenoxypropyl]amino}ethyl)(methyl)anilino]-1,3-thiazolidine-2,4-dione.], the EC50 at human β3-AR (setting [1]) is 17 nM. Moreover, the Emax at human β3-AR (setting [2]) was 68%.
`O=C1NC(=O)C(Nc2ccc(CCNC[C@H](O)c3cccc(Cl)c3)cc2)S1` (stereo partly shown) [Example 6, 5-[4-(2-{[(2 R)-2-(3-Chlorophenyl)-2-hydroxy-ethyl]amino}ethyl)anilino]-1,3-thiazolidine-2,4-dione] displayed a melting point of 162 °C. Further, at human β3-AR (setting [1]), the EC50 was determined as 7 nM. The Emax at human β3-AR (setting [2]) is 83%.
On the same counts, the results for `O=C1NC(=O)C(Nc2ccc(CCNC[C@H](O)COc3ccc(O)cc3)cc2)S1` (stereo partly shown) [Example 5, 5-[4-(2-{[(2 S)-2-Hydroxy-3-(4-hydroxyphenoxy)propyl]amino}ethyl)anilino]-1,3-thiazolidine-2,4-dione] are 165 °C, 20 nM and 99%.
Turning to `CC(Cc1ccc(NC2SC(=O)NC2=O)cc1)NC[C@H](O)c1cccc(Cl)c1` (stereo partly shown) [Example 18, 5-[4-(2-{[(2 R)-2-(3-Chlorophenyl)-2-hydroxyethyl]amino}propyl)anilino]-1,3-thiazolidine-2,4-dione], at human β3-AR, the EC50 is 9 nM. For the same molecule, at human β3-AR (CHO), the Emax was 89%.
For `O=C1NC(=O)C(Nc2ccc(CCNC[C@H](O)COc3ccc(F)cc3)cc2)S1` (stereo partly shown) [Example 8, 5-[4-(2-{[(2 S)-3-(4-Fluorophenoxy)-2-hydroxypropyl]amino}ethyl)anilino]-1,3-thiazolidine-2,4-dione], the EC50 on human β3-AR (setting [1]) turned out to be 14 nM. Besides, the Emax at human β3-AR (setting [2]) stood at 66%.
In the case of `O=C1NC(=O)C(Nc2ccc(CCNC[C@H](O)COc3cccc4[nH]c5ccccc5c34)cc2)S1` (stereo partly shown) [Example 13, 5-[4-(2-{[(2 S)-3-(9 H-Carbazol-4-yloxy)-2-hydroxypropyl]amino}ethyl)anilino]-1 ,3-thiazolidine-2,4-dione], the EC50 at human β3-AR (setting [1]) came to 12 nM. In addition, the Emax on human β3-AR (setting [2]) was found to be 104%.
On the same counts, the results for `O=C1NC(=O)C(Nc2ccc(CCNC[C@H](O)c3cccnc3)cc2)S1` (stereo partly shown) [Example 31, 5-{4-[2-((2 R)-2-Hydroxy-2-pyridin-3-yl-ethylamino)-ethyl]-phenylamino}-thiazolidine-2,4-dione] are 96 nM and 88%.
On the same counts, the results for `O=C1NC(=O)C(Nc2ccc(CCNC[C@H](O)COc3cccc(O)c3)cc2)S1` (stereo partly shown) [Example 12, 5-[4-(2-{[(2 S)-2-Hydroxy-3-(3-hydroxyphenoxy)propyl]amino}ethyl)anilino]-1,3-thiazolidine-2,4-dione] are 3 nM and 117%.
`O=C1NC(=O)C(Nc2ccc(CCNC[C@H](O)COc3ccc(OCc4ccccc4)cc3)cc2)S1` (stereo partly shown) [Example 4, 5-{4-[2-({(2 S)-3-[4-(Benzyloxy)phenoxy]-2-hydroxypropyl}amino)ethyl]anilino}-1,3-thiazolidine-2,4-dione] yielded a melting point of 152 °C. Besides, the EC50 on human β3-AR (setting [1]) came out at 1 nM. Besides, the Emax on human β3-AR (setting [2]) was 85%.
Take `O=C1NC(=O)C(N(Cc2ccc(Br)cc2)c2ccc(CCNC[C@H](O)COc3ccccc3)cc2)S1` (stereo partly shown) [Example 29, 5-((4-Bromo-benzyl)-{4-[2-((2 S)-2-hydroxy-3-phenoxy-propylamino)-ethyl]-phenyl}-amino)-thiazolidine-2,4-dione]: the EC50 on human β3-AR (setting [1]) was found to be 3 nM. Besides, the Emax at human β3-AR (setting [2]) was 109%.
Regarding `CS(=O)(=O)Nc1cc([C@H](O)CNCCc2ccc(NC3SC(=O)NC3=O)cc2)ccc1O` (stereo partly shown) [Example 14, N{5-[(1 S)-2-({4-[(2,4-Dioxo-1,3-thiazolidin-5-yl)amino]phenethyl}amino)-1-hydroxyethyl]-2-hydroxyphenyl}methanesulfonamide], the EC50 on human β3-AR (setting [1]) is 9 nM. The Emax at human β3-AR (setting [2]) was determined as 111%.
On the same counts, the results for `O=C1NC(=O)C(Nc2ccc(CCNC[C@H](O)COc3ccccc3)cc2)S1` (stereo partly shown) [Example 9, 5-[4-(2-{[(2 S)-2-Hydroxy-3-phenoxypropyl]amino}ethyl)anilino]-1,3-thiazolidine-2,4-dione] are 0.9 nM and 98%.

As a reminder, the EC50 is the concentration needed to bring the measured effect to its halfway point. Usually melting point stands for the temperature of the solid-liquid transition.
